For the assay, the target named is human α7 nAChR (Homo sapiens (Human), UniProt P36544). Nature of the assay: Automated patch-clamp electrophysiology functional assay (Assay A). The class given is cell-based. The conditions noted are these: IonFlux HT whole-cell population patch, HEK cells expressing human α7/RIC-3, 40 μM acetylcholine. The protocol:
The α7 nAChR positive allosteric modulator (PAM) activity of the present compounds may be tested using assays known in the art. The α7 nAChR PAMs described herein have activities in an automated patch-clamp electrophysiology functional assay as described in the examples. The assay was performed using the IonFlux HT in a whole-cell, population patch configuration. See Golden et al. Assay Drug Dev. Technol. (2011) 9:608-619. The compounds were assessed for their ability to modulate the function of the human α7 nAChR stably expressed in a HEK cell line both in the presence, and in the absence of the natural α7 agonist acetylcholine. By performing a series of such measurements at different concentrations, the effective concentration of the α7 nAChR PAMs (EC50) was determined. See Spencer et al. Assay Drug Dev. Technol. (2012) 10:313-324.
Direct activation of α7 (agonism), and potentiation of acetylcholine-evoked α7 currents was determined as follows:
Automated Patch-Clamp Electrophysiology Functional Assay (Assay A)
Automated patch-clamp electrophysiology was performed using the IonFluxHT (Fluxion Biosciences Inc., San Francisco, CA) in the whole-cell, population patch configuration. Test compounds were assessed for their ability to modulate the function of the α7 nicotinic acetylcholine receptor both in the presence, and in the absence of the natural α7 agonist acetylcholine. A HEK cell line stably expressing both human RIC-3 and human α7 (PrecisION hnAChR α7/RIC-3, Eurofins Pharma, St. Charles, MO) was cultured in 175 cm^2 triple-layer tissue culture flasks to no more than 90% confluency in DMEM/F-12 growth media supplemented with 10% heat-inactivated fetal bovine serum, 1% non-essential amino acids, 0.625 μg/mL Puromycin, and 400 μg/mL Geneticin. Immediately prior to assay, cells were detached by first aspirating growth media, rinsing with Dulbecco's phosphate buffered saline, and then adding 10 mL of Accutase (Innovative Cell Technologies, San Diego, CA) to the flask and then incubating at 37° C. for 5 minutes. Detached cells were then recovered by the addition of 40 mL of CHO-serum-free media supplemented with 25 mM HEPES, and rocked gently in a 50 mL conical tube for 20 minutes prior to patch-clamp assay. After recovery, cells were pelleted by centrifugation at 1,000 RPM for 1 minute in a compact bench top centrifuge; recovery media was aspirated and cells were resuspended in external recording solution (150 mM NaCl, 5 mM KCl, 2 mM CaCl2), 1 mM MgCl2, 10 mM HEPES, 12 mM dextrose) to a density of 5.0×10^6 cells/mL. The cell suspension was added to the cell inlet wells on an IonFlux HT population patch plate which had previously been rinsed and primed with deionized H2O. Test compounds were serially diluted in DMSO and then resuspended to the final test concentration in external recording solution, with, or without 40 μM acetylcholine added to the external recording solution; test compounds were then transferred to the IonFlux HT population patch plate. Internal recording solution (110 mM TrisPO4, 28 mM TrisBase, 0.1 mM CaCl2), 2 mM MgCl2, 11 mM EGTA, 4 mM MgATP) was added to the internal recording solution inlet wells on the IonFlux HT patch plate previously loaded with cells and test compounds, and the plate loaded into the IonFlux HT instrument. A protocol was executed on the IonFlux HT to trap the cells, break into the cells, and establish the whole-cell recording configuration; cells were voltage-clamped at a holding potential of −60 mV for the duration of the experiment, all experiments were conducted at room temperature, and the IonFlux HT injection pressure was 8 psi for solution applications. Upon establishing the whole-cell configuration, external recording solution was perfused into the recording chambers for 120 seconds and then 40 μM acetylcholine was applied for 1 second and immediately washed off with external recording solution for 60 seconds. […]
(The patch-clamp technique gives a direct electrical read-out from membranes.)

human α7 nAChR, sequence (P36544 23-502): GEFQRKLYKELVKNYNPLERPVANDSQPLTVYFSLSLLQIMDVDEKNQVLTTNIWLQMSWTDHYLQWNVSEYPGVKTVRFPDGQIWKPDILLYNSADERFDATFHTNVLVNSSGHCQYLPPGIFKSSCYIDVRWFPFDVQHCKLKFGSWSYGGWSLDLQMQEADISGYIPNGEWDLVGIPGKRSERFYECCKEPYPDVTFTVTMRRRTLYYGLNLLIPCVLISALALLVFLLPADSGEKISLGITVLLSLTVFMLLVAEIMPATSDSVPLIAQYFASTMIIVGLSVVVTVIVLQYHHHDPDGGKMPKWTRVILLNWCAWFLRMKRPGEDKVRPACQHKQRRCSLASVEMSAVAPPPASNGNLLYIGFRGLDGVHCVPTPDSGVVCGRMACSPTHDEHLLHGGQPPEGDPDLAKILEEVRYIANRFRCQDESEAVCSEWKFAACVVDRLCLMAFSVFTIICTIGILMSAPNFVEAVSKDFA

As usually defined, the EC50 is the midpoint of the concentration-response curve. As to `O=C(N[C@@H]1CCc2c(O)cccc21)C1C2Oc3ccc(F)cc3C21` (mixture of isomers) [Example C10, exo-5-fluoro-N-(4-hydroxy-2,3-dihydro-1H-inden-1-yl)-1a,6b-dihydro-1H-cyclopropa[b][1]benzofuran-1-carboxamide], the EC50 was 1600 nM (electrophysiology EC50 values) and 500 to 5000 nM (potency class).

For the compound `COC(=O)[C@@H](NC(=O)C1C2Oc3ccc(F)cc3C21)c1cccc(F)c1` (mixture of isomers) [Example C13, methyl 2-(3-fluorophenyl)-2-[(exo-5-fluoro-1a,6b-dihydro-1H-cyclopropa[b][1]benzofuran-1-carbonyl)amino]acetate], the half-maximal effective concentration (EC50) (electrophysiology EC50 values) amounted to 3500 nM and the EC50 (potency class) lay within 500 to 5000 nM. Turning to `CCOc1ccc([C@H](COC)NC(=O)C2C3Cc4ccccc4C32)cc1` (single isomer, unassigned) [Example 1], the EC50 (electrophysiology EC50 values) worked out at 760 nM and the concentration for a half-maximal effect (EC50) (potency class) lay within 500 to 5000 nM. Consider `CCOc1ccc([C@H](COC)NC(=O)C2C3Cc4ccccc4C32)cc1` (single isomer, unassigned) [Example 2], for which the EC50 was 72 nM (electrophysiology EC50 values) and not above 100 nM (potency class). The corresponding values for `CCOc1ccc([C@H](COC)NC(=O)C2C3Oc4ccc(-c5cn(Cc6ccccc6)nn5)cc4C32)cc1` (single isomer, unassigned) [Example 6] are 1100 nM and 500 to 5000 nM.

Regarding `COC(CNC(=O)[C@@H]1[C@H]2COc3ccc(F)cc3[C@H]21)C1CCCCC1` (single isomer, unassigned) [Example A4, exo-N-(2-cyclohexyl-2-methoxyethyl)-6-fluoro-1,1a,2,7b-tetrahydrocyclopropa[c][1]benzopyran-1-carboxamide], the EC50 (potency class) lay within 500 to 5000 nM.

For the compound `O=C(N[C@@H](CO)C1CCCCC1)C1C2COc3ccc(F)cc3C21` (stereo partly drawn) [Example 3, exo-N-[(1R)-1-Cyclohexyl-2-hydroxyethyl]-6-fluoro-1,1a,2,7b-tetrahydrocyclopropa[c][1]benzopyran-1-carboxamide], the EC50 by setting is: (electrophysiology EC50 values) 1700 nM; (potency class) 500 to 5000 nM. Turning to `COc1cc([C@@H](NC(=O)C2C3COc4ccc(F)cc4C32)C(F)(F)F)ccn1` (stereo partly drawn) [Example 4, exo-6-Fluoro-N-[(1R)-2,2,2-trifluoro-1-(2-methoxypyridin-4-yl)ethyl]-1,1a,2,7b-tetrahydrocyclopropa[c][1]benzopyran-1-carboxamide], the 50% effective concentration (EC50) by setting is: (electrophysiology EC50 values) 1100 nM; (potency class) 500 to 5000 nM.

`CCOc1ccc([C@H](COC)NC(=O)C2C3Oc4ccc(-c5nn[nH]n5)cc4C32)cc1` (stereo partly drawn) [Example 5, exo-N-[(1R)-1-(4-Ethoxyphenyl)-2-methoxyethyl]-5-(2H-tetrazol-5-yl)-1a,6b-dihydro-1H-cyclopropa[b][1]benzofuran-1-carboxamide]: the EC50 by setting is: (electrophysiology EC50 values) 1500 nM; (potency class) 500 to 5000 nM. As to `O=C(NCc1nc(-c2ccccc2)no1)C1C2Oc3ccc(F)cc3C21` (stereo not drawn) [Example 7, exo-5-Fluoro-N-[(3-phenyl-1,2,4-oxadiazol-5-yl)methyl]-1a,6b-dihydro-1H-cyclopropa[b][1]benzofuran-1-carboxamide], the EC50 reads like this: (electrophysiology EC50 values) 50 nM; (potency class) not above 100 nM. The corresponding values for `O=C(NC1(c2ccc(F)cc2)COC1)C1C2COc3ccccc3C21` (stereo not drawn) [Example A1, exo-N-[3-(4-fluorophenyl)oxetan-3-yl]-1,1a,2,7b-tetrahydrocyclopropa[c][1]benzopyran-1-carboxamide] are 1500 nM and 500 to 5000 nM.

For `O=C(NC1(c2ccc(F)cc2)COC1)C1C2COc3ccc(F)cc3C21` (stereo not drawn) [Example A2, exo-6-fluoro-N-[3-(4-fluorophenyl)oxetan-3-yl]-1,1a,2,7b-tetrahydrocyclopropa[c][1]benzopyran-1-carboxamide], the concentration giving a half-maximal response (EC50) is 1200 nM (electrophysiology EC50 values) and 500 to 5000 nM (potency class). In the same order, the values of `CCOc1ccc([C@H](CO)NC(=O)C2C3COc4ccc(F)cc4C32)cn1` (stereo partly drawn) [Example A3, exo-N-[(1R)-1-(6-ethoxypyridin-3-yl)-2-hydroxyethyl]-6-fluoro-1,1a,2,7b-tetrahydrocyclopropa[c][1]benzopyran-1-carboxamide] are 2200 nM and 500 to 5000 nM. On to `O=C(NC1(c2ccc(F)cc2)CC(O)C1)C1C2COc3ccccc3C21` (stereo not drawn) [Example A5, exo-N-[1-(4-fluorophenyl)-3-hydroxycyclobutyl]-1,1a,2,7b-tetrahydrocyclopropa[c][1]benzopyran-1-carboxamide], for which the EC50 (electrophysiology EC50 values) was found to be 4600 nM and the EC50 (potency class) is 500 to 5000 nM.

Regarding `O=C(N[C@@H](CO)C1CCCCC1)C1C2COc3ccccc3C21` (stereo partly drawn) [Example A6, exo-N-[(1R)-1-cyclohexyl-2-hydroxyethyl]-1,1a,2,7b-tetrahydrocyclopropa[c][1]benzopyran-1-carboxamide], the concentration giving a half-maximal response (EC50) was 1100 nM (electrophysiology EC50 values) and 500 to 5000 nM (potency class). Regarding `O=C(N[C@@H](C(F)F)C1CCCCC1)C1C2COc3ccc(F)cc3C21` (stereo partly drawn) [Example A7, exo-N-[(1R)-1-cyclohexyl-2,2-difluoroethyl]-6-fluoro-1,1a2,7b-tetrahydrocyclopropa[c][1]benzopyran-1-carboxamide], the EC50 (electrophysiology EC50 values) was determined as 800 nM and the concentration giving a half-maximal response (EC50) (potency class) was 500 to 5000 nM. Take `O=C(NC1(c2ccccc2)CCC1)C1C2COc3ccc(F)cc3C21` (stereo not drawn) [Example A8, exo-6-fluoro-N-(1-phenylcyclobutyl)-1,1a,2,7b-tetrahydrocyclopropa[c][1]benzopyran-1-carboxamide]: the EC50 (electrophysiology EC50 values) worked out at 1000 nM and the half-maximal effective concentration (EC50) (potency class) lay within 500 to 5000 nM. For `O=C(NC1(c2ccc(F)cc2)CC1)C1C2COc3ccc(F)cc3C21` (stereo not drawn) [Example A9, exo-6-fluoro-N-[1-(4-fluorophenyl)cyclopropyl]-1,1a,2,7b-tetrahydrocyclopropa[c][1]benzopyran-1-carboxamide], the EC50 (electrophysiology EC50 values) is 1100 nM and the EC50 (potency class) fell in the range of 500 to 5000 nM. In the case of `COc1cc(C2(NC(=O)C3C4COc5ccccc5C43)CC2)ccn1` (stereo not drawn) [Example A10, exo-N-[1-(2-methoxypyridin-4-yl)cyclopropyl]-1,1a,2,7b-tetrahydrocyclopropa[c][1]benzopyran-1-carboxamide], the concentration giving a half-maximal response (EC50) (potency class) lay in the range of 500 to 5000 nM. For the compound `CCOc1ccc(C2(NC(=O)C3C4COc5ccccc5C43)CCC2)cn1` (stereo not drawn) [Example A11, exo-N-[1-(6-ethoxypyridin-3-yl)cyclobutyl]-1,1a,2,7b-tetrahydrocyclopropa[c][1]benzopyran-1-carboxamide], the EC50 (electrophysiology EC50 values) amounted to 620 nM and the concentration giving a half-maximal response (EC50) (potency class) was 500 to 5000 nM. `COc1cc(C2(NC(=O)C3C4COc5ccccc5C43)CCC2)ccn1` (stereo not drawn) [Example A12, exo-N-[1-(2-methoxypyridin-4-yl)cyclobutyl]-1,1a,2,7b-tetrahydrocyclopropa[c][1]benzopyran-1-carboxamide]: the 50% effective concentration (EC50) is, setting by setting: (electrophysiology EC50 values) 1500 nM; (potency class) 500 to 5000 nM. The corresponding values for `CCOc1ccc([C@@H](NC(=O)C2C3COc4ccc(F)cc4C32)C(F)(F)F)cn1` (stereo partly drawn) [Example A13, exo-N-[(1R)-1-(6-ethoxypyridin-3-yl)-2,2,2-trifluoroethyl]-6-fluoro-1,1a,2,7b-tetrahydrocyclopropa[c][1]benzopyran-1-carboxamide] are 1100 nM and 500 to 5000 nM. Take `CCOc1ccc([C@@H](NC(=O)C2C3COc4ccc(F)cc4C32)C(F)F)cn1` (stereo partly drawn) [Example A14, exo-N-[(1R)-1-(6-ethoxypyridin-3-yl)-2,2-difluoroethyl]-6-fluoro-1,1a,2,7b-tetrahydrocyclopropa[c][1]benzopyran-1-carboxamide]: the 50% effective concentration (EC50) by setting is: (electrophysiology EC50 values) 1100 nM; (potency class) 500 to 5000 nM.

These data come from patent US20240368109A1, “ALLOSTERIC MODULATORS OF NICOTINIC ACETYLCHOLINE RECEPTORS” (MERCK SHARP & DOHME LLC, priority 2021, published 2024).
